Laboratory results as given in patent publication US11731943B2, “Therapeutic compounds, compositions and methods of use thereof” (priority 2016, dated 2023).

Legend:
[1] = biological target: isolated recombinant JAK2 kinase domain (Homo sapiens (Human), UniProt O60674); assay: JAK2 enzyme assay (Caliper LabChip, Ki); type: biochemical
Method in brief: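 Caliper LabChip readout of phosphorylated product as a fraction of total substrate, a fluorescently N-terminally labelled JAK3-derived peptide. Isolated human JAK kinase domains were incubated 30 min at 22 °C before EDTA quench (50 mM final).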

[2] = system: JAK1-dependent STAT6 phosphorylation downstream of IL-13 stimulation in BEAS-2B human bronchial epithelial cells; assay: JAK1 pathway assay in BEAS-2B cells (IL-13-pSTAT6, MSD); type: cell-based; conditions: Homo sapiens, BEAS-2B, BEAS-2B cells, IL-13 stimulation; read-out: IL-13 p-STAT6 BEAS-2B IC50
[3] = biological target: isolated recombinant JAK1 kinase domain (Homo sapiens (Human), UniProt P23458); assay: JAK1 enzyme assay (Caliper LabChip, Ki); type: biochemical; conditions: read-out: JAK1 Ki
Method in brief: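 Ki derived via Morrison tight-binding model, ATP-competitive correction applied. Read-out: product/total ratio of a 5-carboxyfluorescein-tagged JAK3 peptide separated on Caliper LabChip after phosphorylation by isolated human JAK1 kinase domain (22 °C, 30 min; EDTA quench, 50 mM final).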

Sequence of isolated recombinant JAK2 kinase domain (O60674 849-1124): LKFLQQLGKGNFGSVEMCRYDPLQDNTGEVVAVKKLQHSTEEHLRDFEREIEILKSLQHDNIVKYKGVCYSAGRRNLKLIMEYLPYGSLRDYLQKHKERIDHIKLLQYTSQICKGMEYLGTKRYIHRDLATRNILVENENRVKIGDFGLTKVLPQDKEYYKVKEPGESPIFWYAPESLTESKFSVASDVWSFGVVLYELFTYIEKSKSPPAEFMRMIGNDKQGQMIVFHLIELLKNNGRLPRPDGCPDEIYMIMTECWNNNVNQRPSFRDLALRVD
Sequence of isolated recombinant JAK1 kinase domain (P23458 875-1153): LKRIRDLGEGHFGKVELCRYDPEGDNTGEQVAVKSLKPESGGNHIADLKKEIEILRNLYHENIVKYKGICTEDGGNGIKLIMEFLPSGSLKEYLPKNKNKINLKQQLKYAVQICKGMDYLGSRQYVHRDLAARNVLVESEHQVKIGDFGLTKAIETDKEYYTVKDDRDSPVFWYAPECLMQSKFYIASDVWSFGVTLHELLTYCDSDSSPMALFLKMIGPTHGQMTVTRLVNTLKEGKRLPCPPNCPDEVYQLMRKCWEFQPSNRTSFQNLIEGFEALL

For `N#CCC1(n2cc(C(N)=O)c(NC(=O)C3CC3)n2)CCC(Nc2ccc(-n3nccn3)cc2)CC1` (stereo not drawn) [Example 288, 1-[1-(cyanomethyl)-4-[4-(triazol-2-yl)anilino]cyclohexyl]-3-(cyclopropanecarbonylamino) pyrazole-4-carboxamide], the Ki [1] was 4.4 nM, the IC50 [2] was 41 nM and the Ki [3] was 0.28 nM.
`C#Cc1ccc(CN2CCC(CC#N)(n3cc(C(N)=O)c(NC(=O)OC)n3)C(F)C2)c(Cl)c1` (stereo not drawn) [Example 289, methyl N-[4-carbamoyl-1-[1-[(2-chloro-4-ethynyl-phenyl)methyl]-4-(cyanomethyl)-3-fluoro-4-piperidyl]pyrazol-3-yl]carbamate] gave a Ki [1] of 0.55 nM, an IC50 [2] of 15 nM and a Ki [3] of 0.26 nM.
`N#CCC1(n2cc(C(N)=O)c(NC(=O)C3CC3)n2)CCC(Nc2ccccc2Cl)CC1` (stereo not drawn) [Example 290, 1-[4-(2-chloroanilino)-1-(cyanomethyl)cyclohexyl]-3-(cyclopropanecarbonylamino) pyrazole-4-carboxamide] gave a Ki [1] of 13 nM, an IC50 [2] of 82 nM and a Ki [3] of 1.1 nM.
Work on `CC1(Oc2ccc(OC(F)F)cc2)CN(C2CCC(CC#N)(n3cc(C(N)=O)c(NC(=O)C4CC4)n3)CC2)C1` (stereo not drawn) [Example 291, 1-[1-(cyanomethyl)-4-[3-[4-(difluoromethoxy)phenoxy]-3-methyl-azetidin-1-yl]cyclohexyl]-3-(cyclopropanecarbonylamino) pyrazole-4-carboxamide] yielded a Ki [1] of 2.1 nM, an IC50 [2] of 54 nM and a Ki [3] of 0.86 nM.
In the case of `COC(=O)Nc1nn(C2(CC#N)CCN(Cc3cc(O)c(C)cc3F)CC2F)cc1C(N)=O` (stereo not drawn) [Example 292, methyl N-[4-carbamoyl-1-[4-(cyanomethyl)-3-fluoro-1-[(2-fluoro-5-hydroxy-4-methyl-phenyl)methyl]-4-piperidyl]pyrazol-3-yl]carbamate], the Ki [1] is reported as 0.7 nM, the IC50 [2] is reported as 49 nM and the Ki [3] is reported as 0.55 nM.
For `COC(=O)Nc1nn(C2(CC#N)CCN(Cc3cc(O)cc(F)c3)CC2F)cc1C(N)=O` (stereo not drawn) [Example 293, methyl N-[4-carbamoyl-1-[4-(cyanomethyl)-3-fluoro-1-[(3-fluoro-5-hydroxy-phenyl)methyl]-4-piperidyl]pyrazol-3-yl]carbamate], the Ki [1] was 0.34 nM, the IC50 [2] was 55 nM and the Ki [3] was 0.3 nM.
`C#Cc1ccc(OC2(C)CN(C3CCC(CC#N)(n4cc(C(N)=O)c(NC(=O)C5CC5)n4)CC3)C2)cc1` (stereo not drawn) [Example 294, 1-(1-(Cyanomethyl)-4-(3-(4-ethynylphenoxy)-3-methylazetidin-1-yl)cyclohexyl)-3-(cyclopropanecarboxamido)-1H-pyrazole-4-carboxamide] gave a Ki [1] of 1.1 nM, an IC50 [2] of 47 nM and a Ki [3] of 0.74 nM.
`CC1(Oc2ccc(C(F)(F)F)cc2)CN(C2CCC(CC#N)(n3cc(C(N)=O)c(NC(=O)C4CC4)n3)CC2)C1` (stereo not drawn) [Example 295, 1-[1-(cyanomethyl)-4-[3-methyl-3-[4-(trifluoromethyl)phenoxy]azetidin-1-yl]cyclohexyl]-3-(cyclopropanecarbonylamino) pyrazole-4-carboxamide] gave a Ki [1] of 2.9 nM, an IC50 [2] of 85 nM and a Ki [3] of 2 nM.
In the case of `COC(=O)Nc1nn(C2(CC#N)CCN(Cc3cc(O)c(Br)cc3Cl)CC2F)cc1C(N)=O` (stereo not drawn) [Example 296, methyl N-[1-[1-[(4-bromo-2-chloro-5-hydroxy-phenyl)methyl]-4-(cyanomethyl)-3-fluoro-4-piperidyl]-4-carbamoyl-pyrazol-3-yl]carbamate], the Ki [1] is reported as 0.59 nM, the IC50 [2] is reported as 52 nM and the Ki [3] is reported as 0.56 nM.
Work on `C#Cc1ccc(CN2CCC(CC#N)(n3cc(C(N)=O)c(NC(=O)OC)n3)C(F)C2)c(F)c1` (stereo not drawn) [Example 297, methyl N-[4-carbamoyl-1-[4-(cyanomethyl)-1-[(4-ethynyl-2-fluoro-phenyl)methyl]-3-fluoro-4-piperidyl]pyrazol-3-yl]carbamate] yielded a Ki [1] of 0.76 nM, an IC50 [2] of 62 nM and a Ki [3] of 0.53 nM.
`CC#Cc1ccc(CN2CCC(CC#N)(n3cc(C(N)=O)c(NC(=O)OC)n3)C(F)C2)cc1` (stereo not drawn) [Example 298, Methyl (4-carbamoyl-1-(4-(cyanomethyl)-3-fluoro-1-(4-(prop-1-yn-1-yl)benzyl)piperidin-4-yl)-1H-pyrazol-3-yl)carbamate] gave a Ki [1] of 0.58 nM, an IC50 [2] of 29 nM and a Ki [3] of 0.6 nM.
For `N#CCC1(n2cc(C(N)=O)c(NC(=O)C3CC3)n2)CCN(Cc2ccc(C#CC3CC3)cc2)CC1` [Example 299, 1-(4-(Cyanomethyl)-1-(4-(cyclopropylethynyl)benzyl)piperidin-4-yl)-3-(cyclopropanecarboxamido)-1H-pyrazole-4-carboxamide], the Ki [1] was 3 nM, the IC50 [2] was 85 nM and the Ki [3] was 1.1 nM.
Work on `Cc1ccc(OC2(C)CN([C@H]3CC[C@](CC#N)(n4cc(C(N)=O)c(NC(=O)C5CC5)n4)CC3)C2)cc1` [Example 300, 1-[1-(cyanomethyl)-4-[3-methyl-3-(4-methylphenoxy)azetidin-1-yl]cyclohexyl]-3-(cyclopropanecarbonylamino) pyrazole-4-carboxamide] yielded a Ki [1] of 1.3 nM, an IC50 [2] of 43 nM and a Ki [3] of 1.5 nM.
With `CCC1(n2cc(C(N)=O)c(Nc3ccc(S(=O)(=O)C(F)F)cc3)n2)CCN(Cc2cc(O)ccc2F)CC1` [Example 301, 3-((4-((Difluoromethyl)sulfonyl)phenyl)amino)-1-(4-ethyl-1-(2-fluoro-5-hydroxybenzyl)piperidin-4-yl)-1H-pyrazole-4-carboxamide] the Ki [1] was 2 nM, the IC50 [2] was 100 nM and the Ki [3] was 1.5 nM.
`CC[C@]1(n2cc(C(N)=O)c(Nc3ccc(S(C)(=O)=O)cc3)n2)CC[C@H](N2CC(C(F)(F)F)C2)CC1` [Example 302, 1-((1S,4S)-1-ethyl-4-(3-(trifluoromethyl)azetidin-1-yl)cyclohexyl)-3-((4-(methylsulfonyl)phenyl)amino)-1H-pyrazole-4-carboxamide] showed a Ki [1] of 2 nM, an IC50 [2] of 43 nM and a Ki [3] of 0.94 nM.
`CCOP(=O)(OCC)c1ccc(Nc2nn([C@]3(CC#N)CC[C@@H](N4CC(C(F)(F)F)C4)CC3)cc2C(N)=O)cc1` [Example 303, Diethyl (4-((4-carbamoyl-1-((1R,4R)-1-(cyanomethyl)-4-(3-(trifluoromethyl)azetidin-1-yl)cyclohexyl)-1H-pyrazol-3-yl)amino)phenyl)phosphonate] was tested, and the Ki [1] was 0.66 nM, the IC50 [2] was 34 nM and the Ki [3] was 0.39 nM.
In the case of `CCC1(n2cc(C(N)=O)c(Nc3ccc(S(=O)(=O)C(F)F)cc3)n2)CCN(C(=O)CC#N)CC1` [Example 304], the Ki [1] is reported as 2.8 nM, the IC50 [2] is reported as 220 nM and the Ki [3] is reported as 0.49 nM.
